According to patent US11229618B2 (Amarin Pharmaceuticals Ireland Limited, priority 2012, dated 2022):

Experiment: AAMI 6-week study: essential fatty acid parameters in RBC (gas chromatography)
Type: in vivo, human
Settings: for AA RBC Mean change from Baseline / DHA RBC Mean change from Baseline / AA RBC 1 or 2 g versus 4 g LS Mean / DHA RBC 1 or 2 g versus 4 g LS Mean: AAMI; for AA RBC Mean change from Baseline / DHA RBC Mean change from Baseline: mean (SD); for DGLA 1 or 2 g versus 4 g, LS Mean / DPAn-3 1 or 2 g versus 4 g, LS Mean / EPA/AA 1 or 2 g versus 4 g, LS Mean / DGLA Mean change from Baseline, Mean (SD) / DPAn-3 Mean change from Baseline, Mean (SD) / EPA/AA Mean change from Baseline, Mean (SD) / DGLA Baseline Mean (SD) / DPAn-3 Baseline Mean (SD) / EPA/AA Baseline Mean (SD): RBC
Experimental: A single-center, 6-week, double-blind, randomizes, parallel-group, placebo-controlled, dose-ranging pilot study was performed to evaluate the efficacy, tolerability, and safety of >96% ethyl-EPA in subjects with subjective and objective memory impairment according to generally accepted criteria for Age-Associated Memory Impairment (“AAMI”). The primary objective of the study was to determine the effect of >96% ethyl-EPA 1 g, 2 g, and 4 g daily, compared to placebo, on cognitive performance in subjects with AAMI.
Ninety-four subjects were randomized into one of six groups: 1 g E-EPA daily (n=23), 2 g E-EPA daily (n=24), 4 g E-EPA daily (n=24), 1 g placebo daily (n=7), 2 g placebo daily (n=8), and 4 g placebo daily (n=8). E-EPA was provided as 500 mg soft gel capsules containing>96% E-EPA and 0.2% dl-α-tocopherol as an antioxidant. Placebo capsules contained 467 mg of liquid paraffin and 0.2% dl-α-tocopherol. Ninety-one subjects completed the study. Two subjects in the 2 g E-EPA group and one subject in the 2 g placebo group discontinued the study.
Blood samples (10 mL) were collected at Visit 1 (screening) and at Visits 4, 5 and 6. Analysis was performed by MSR Lipid Analysis, Scottish Crop Research Institute, Dundee, UK. The screening sample acted as baseline for the EFA measurements. Lipid was extracted from plasma, serum and RBC suspensions and converted into fatty acid methyl esters which were analyzed by gas chromatography to give fatty acid profiles as micrograms fatty acid per gram of sample (μgFA/g) and normalized area percent.
RBC and plasma EFA data were collected at baseline, Day 14, 28 and 42 and summarized by visit for each treatment group. Change from baseline and percent change from baseline were also summarized. ANCOVA comparison of ethyl-EPA dose groups and ethyl-EPA versus placebo was performed.

[1] = Ethyl-EPA 1 g versus 4 g, p-value <0.001

For `CC/C=C\C/C=C\C/C=C\C/C=C\C/C=C\CCCC(=O)OCC` [IPE, all-cis eicosa-5,8,11,14,17-pentaenoic acid ethyl ester], the “AA RBC Mean change from Baseline” value (1 g daily, Day 14) was −8.1 (21.95) μg/g, the “DHA RBC Mean change from Baseline” value (1 g daily, Day 14) was −4.6 (9.76) μg/g and the “AA RBC Mean change from Baseline” value (1 g daily, Day 28) was −17.0 (20.69) μg/g. For the same compound, the “DHA RBC Mean change from Baseline” value (1 g daily, Day 28) was −6.4 (11.57) μg/g, the “AA RBC Mean change from Baseline” value (1 g daily, Day 42) was −14.2 (27.69) μg/g and the “DHA RBC Mean change from Baseline” value (1 g daily, Day 42) was −7.0 (12.20) μg/g. The “AA RBC 1 or 2 g versus 4 g LS Mean” value (1 g versus 4 g) was 8.4 µg/g, the “DHA RBC 1 or 2 g versus 4 g LS Mean” value (1 g versus 4 g) was 1.0 µg/g and the “AA RBC Mean change from Baseline” value (2 g daily, Day 14) was −3.1 (25.84) μg/g. For the same compound, the “DHA RBC Mean change from Baseline” value (2 g daily, Day 14) was −2.0 (9.46) μg/g, the “AA RBC Mean change from Baseline” value (2 g daily, Day 28) was −14.1 (26.89) μg/g and the “DHA RBC Mean change from Baseline” value (2 g daily, Day 28) was −6.2 (9.34) μg/g. For the same compound, the “AA RBC Mean change from Baseline” value (2 g daily, Day 42) was −18.8 (25.62) μg/g, the “DHA RBC Mean change from Baseline” value (2 g daily, Day 42) was −6.3 (9.42) μg/g and the “AA RBC 1 or 2 g versus 4 g LS Mean” value (2 g versus 4 g) was 9.8 µg/g. The “DHA RBC 1 or 2 g versus 4 g LS Mean” value (2 g versus 4 g) was 1.0 µg/g, the “AA RBC Mean change from Baseline” value (4 g daily, Day 14) was −15.7 (26.76) μg/g and the “DHA RBC Mean change from Baseline” value (4 g daily, Day 14) was −6.9 (9.13) μg/g. The “AA RBC Mean change from Baseline” value (4 g daily, Day 28) was −22.8 (29.56) μg/g, the “DHA RBC Mean change from Baseline” value (4 g daily, Day 28) was −8.7 (11.63) μg/g and the “AA RBC Mean change from Baseline” value (4 g daily, Day 42) was −34.4 (31.44) μg/g. For the same compound, the “DHA RBC Mean change from Baseline” value (4 g daily, Day 42) was −13.8 (13.76) μg/g, the “DGLA 1 or 2 g versus 4 g, LS Mean” value (Ethyl-EPA 1 g versus 4 g, p-value 0.027) was 1.5 µg/g and the “DPAn-3 1 or 2 g versus 4 g, LS Mean” value [1] was -6.2 µg/g. The “EPA/AA 1 or 2 g versus 4 g, LS Mean” value [1] was −0.18, the “DGLA Mean change from Baseline, Mean (SD)” value (“DGLA Mean change … (SD)” below) (Ethyl-EPA 1 g, Day 14) was −2.7 (3.82) μg/g and the “DPAn-3 Mean change from Baseline, Mean (SD)” value (“DPAn-3 Mean change … (SD)” for short) (Ethyl-EPA 1 g, Day 14) was 0.9 (5.03) μg/g. For the same compound, the “EPA/AA Mean change from Baseline, Mean (SD)” value (“EPA/AA Mean change … (SD)” below) (Ethyl-EPA 1 g, Day 14) was 0.1 (0.04), the “DGLA Mean change … (SD)” value (Ethyl-EPA 1 g, Day 28) was −3.8 (3.31) μg/g and the “DPAn-3 Mean change … (SD)” value (Ethyl-EPA 1 g, Day 28) was 3.3 (5.42) μg/g. The “EPA/AA Mean change … (SD)” value (Ethyl-EPA 1 g, Day 28) was 0.1 (0.05), the “DGLA Mean change … (SD)” value (Ethyl-EPA 1 g, Day 42) was −3.5 (4.51) μg/g and the “DPAn-3 Mean change … (SD)” value (Ethyl-EPA 1 g, Day 42) was 6.5 (6.19) μg/g. The “EPA/AA Mean change … (SD)” value (Ethyl-EPA 1 g, Day 42) was 0.1 (0.06), the “DGLA Baseline Mean (SD)” value (Ethyl-EPA 1 g) was 23.0 (5.19) μg/g and the “DPAn-3 Baseline Mean (SD)” value (Ethyl-EPA 1 g) was 34.1 (5.43) μg/g. For the same compound, the “EPA/AA Baseline Mean (SD)” value (Ethyl-EPA 1 g) was 0.1 (0.07), the “DPAn-3 1 or 2 g versus 4 g, LS Mean” value (Ethyl-EPA 2 g versus 4 g, p-value 0.002) was -2.5 µg/g and the “DGLA 1 or 2 g versus 4 g, LS Mean” value (Ethyl-EPA 2 g versus 4 g, p-value 0.032) was 1.5 µg/g. For the same compound, the “EPA/AA 1 or 2 g versus 4 g, LS Mean” value (Ethyl-EPA 2 g versus 4 g, p-value <0.001) was −0.11, the “DGLA Mean change … (SD)” value (Ethyl-EPA 2 g, Day 14) was −2.6 (3.54) μg/g and the “DPAn-3 Mean change … (SD)” value (Ethyl-EPA 2 g, Day 14) was 5.6 (6.28) μg/g. The “EPA/AA Mean change … (SD)” value (Ethyl-EPA 2 g, Day 14) was 0.2 (0.04), the “DGLA Mean change … (SD)” value (Ethyl-EPA 2 g, Day 28) was −4.5 (3.58) μg/g and the “DPAn-3 Mean change … (SD)” value (Ethyl-EPA 2 g, Day 28) was 9.4 (6.74) μg/g. For the same compound, the “EPA/AA Mean change … (SD)” value (Ethyl-EPA 2 g, Day 28) was 0.02 (0.06), the “DGLA Mean change … (SD)” value (Ethyl-EPA 2 g, Day 42) was −5.3 (3.65) μg/g and the “DPAn-3 Mean change … (SD)” value (Ethyl-EPA 2 g, Day 42) was 13.2 (7.23) μg/g. For the same compound, the “EPA/AA Mean change … (SD)” value (Ethyl-EPA 2 g, Day 42) was 0.3 (0.06), the “DGLA Baseline Mean (SD)” value (Ethyl-EPA 2 g) was 23.0 (5.76) μg/g and the “DPAn-3 Baseline Mean (SD)” value (Ethyl-EPA 2 g) was 33.2 (4.51) μg/g. The “EPA/AA Baseline Mean (SD)” value (Ethyl-EPA 2 g) was 0.1 (0.06), the “DGLA Mean change … (SD)” value (Ethyl-EPA 4 g, Day 14) was −5.3 (4.10) μg/g and the “DPAn-3 Mean change … (SD)” value (Ethyl-EPA 4 g, Day 14) was 5.4 (5.38) μg/g. For the same compound, the “EPA/AA Mean change … (SD)” value (Ethyl-EPA 4 g, Day 14) was 0.3 (0.07), the “DGLA Mean change … (SD)” value (Ethyl-EPA 4 g, Day 28) was −7.1 (4.63) μg/g and the “DPAn-3 Mean change … (SD)” value (Ethyl-EPA 4 g, Day 28) was 12.4 (6.98) μg/g. For the same compound, the “EPA/AA Mean change … (SD)” value (Ethyl-EPA 4 g, Day 28) was 0.4 (0.11), the “DGLA Mean change … (SD)” value (Ethyl-EPA 4 g, Day 42) was −8.0 (4.98) μg/g and the “DPAn-3 Mean change … (SD)” value (Ethyl-EPA 4 g, Day 42) was 16.2 (10.07) μg/g. For the same compound, the “EPA/AA Mean change … (SD)” value (Ethyl-EPA 4 g, Day 42) was 0.4 (0.14), the “DGLA Baseline Mean (SD)” value (Ethyl-EPA 4 g) was 24.0 (5.77) μg/g and the “DPAn-3 Baseline Mean (SD)” value (Ethyl-EPA 4 g) was 34.5 (4.34) μg/g. For the same compound, the “EPA/AA Baseline Mean (SD)” value (Ethyl-EPA 4 g) was 0.1 (0.04).
